Laboratory results published in US20120313040A1, “COATING LIQUID, OPTICAL ANISOTROPIC FILM AND IMAGE DISPLAY DEVICE” (NITTO DENKO CORPORATION, priority 2011, published 2012).
Like-named read-outs stand apart in the source and are kept apart here.

Assays:
[1] = Dissolution in ion-exchanged water to prepare a 30 mass % coating liquid; assay type: physicochemical
Description: The lyotropic liquid crystalline compound of formula (4) was dissolved in ion-exchanged water, thereby preparing a coating liquid having a concentration of the lyotropic liquid crystalline compound of 30 mass %.
The lyotropic liquid crystalline compound of formula (5) was dissolved in ion-exchanged water, thereby preparing a coating liquid having a concentration of the lyotropic liquid crystalline compound of 30 mass %.
In Comparative Example 1, there was used a perylenetetracarboxylic acid diimide represented by formula (6), which was an intermediate product in Synthesis Example 1 of Lyotropic Liquid Crystalline Compound. Using this compound, it was tried to obtain a coating liquid having a concentration of the lyotropic liquid crystalline compound of 30 mass % in the same manner as in Example 1.
In Comparative Example 2, there was used a compound represented by formula (7), which was an intermediate product in Synthesis Example 2 of Lyotropic Liquid Crystalline Compound. Using this compound, it was tried to obtain a coating liquid having a concentration of the lyotropic liquid crystalline compound of 30 mass % in the same manner as in Example 1.

[2] = Observation of liquid crystal phase of the coating liquid under a polarizing microscope; assay type: physicochemical; details: 30 mass % in ion-exchanged water, observed at 23° C.
Source text: A small amount of the coating liquid was sandwiched between two glass slides, and a liquid crystal phase thereof was observed using a polarizing microscope (manufactured by Olympus Corporation, product name: “OPTIPHOT-POL”) equipped with a large-sized sample heating/cooling stage for microscope (manufactured by Japan High Tech Co., Ltd., product: name “10013L”).

## C[n+]1ccc(N2C(=O)c3ccc4c5ccc6c7c(ccc(c8ccc(c3c48)C2=O)c75)C(=O)N(c2cc[n+](C)cc2)C6=O)cc1 [formula (4), N,N′-bis(4-N-methylpyridyl)-3,4,9,10-perylenecarboxylic acid diimide dichloride]
[1]; ion-exchanged water, target concentration 30 mass %
  solubility in ion-exchanged water: dissolved in water easily and well
[2]
  liquid crystal phase of coating liquid: nematic liquid crystal phase

## C[n+]1ccc2c(c1)nc1c3ccc4c5ccc6c(=O)n7c8cc[n+](C)cc8nc7c7ccc(c8ccc(c(=O)n21)c3c84)c5c67 [formula (5)]
[1]
  solubility in ion-exchanged water: dissolved in water easily and well
[2]
  liquid crystal phase of coating liquid: nematic liquid crystal phase

## O=C1c2ccc3c4ccc5c6c(ccc(c7ccc(c2c37)C(=O)N1c1ccncc1)c64)C(=O)N(c1ccncc1)C5=O [formula (6), perylenetetracarboxylic acid diimide, reference compound]
[1]
  solubility in ion-exchanged water: scarcely dissolved in ion-exchanged water

## O=c1c2ccc3c4ccc5c6c(ccc(c7ccc(c2c37)c2nc3cnccc3n12)c46)c(=O)n1c2ccncc2nc51 [formula (7), reference compound]
[1]
  solubility in ion-exchanged water: scarcely dissolved in ion-exchanged water
[2]
  liquid crystal phase of coating liquid: no liquid crystal phase
